From patent US9040545B2, “Heterocyclyl pyrazolopyrimidine analogues as selective JAK inhibitors” (Cellzome Limited, priority 2010, dated 2015)
pIC50: −log10 of the molar value.

Target: T1, JAK3 (Homo sapiens, UniProt P52333)
T1 construct: endogenous in cells; host or cells: mixed Molt4/Ramos lysate (1:2)
T1 sequence (P52333 1-1124): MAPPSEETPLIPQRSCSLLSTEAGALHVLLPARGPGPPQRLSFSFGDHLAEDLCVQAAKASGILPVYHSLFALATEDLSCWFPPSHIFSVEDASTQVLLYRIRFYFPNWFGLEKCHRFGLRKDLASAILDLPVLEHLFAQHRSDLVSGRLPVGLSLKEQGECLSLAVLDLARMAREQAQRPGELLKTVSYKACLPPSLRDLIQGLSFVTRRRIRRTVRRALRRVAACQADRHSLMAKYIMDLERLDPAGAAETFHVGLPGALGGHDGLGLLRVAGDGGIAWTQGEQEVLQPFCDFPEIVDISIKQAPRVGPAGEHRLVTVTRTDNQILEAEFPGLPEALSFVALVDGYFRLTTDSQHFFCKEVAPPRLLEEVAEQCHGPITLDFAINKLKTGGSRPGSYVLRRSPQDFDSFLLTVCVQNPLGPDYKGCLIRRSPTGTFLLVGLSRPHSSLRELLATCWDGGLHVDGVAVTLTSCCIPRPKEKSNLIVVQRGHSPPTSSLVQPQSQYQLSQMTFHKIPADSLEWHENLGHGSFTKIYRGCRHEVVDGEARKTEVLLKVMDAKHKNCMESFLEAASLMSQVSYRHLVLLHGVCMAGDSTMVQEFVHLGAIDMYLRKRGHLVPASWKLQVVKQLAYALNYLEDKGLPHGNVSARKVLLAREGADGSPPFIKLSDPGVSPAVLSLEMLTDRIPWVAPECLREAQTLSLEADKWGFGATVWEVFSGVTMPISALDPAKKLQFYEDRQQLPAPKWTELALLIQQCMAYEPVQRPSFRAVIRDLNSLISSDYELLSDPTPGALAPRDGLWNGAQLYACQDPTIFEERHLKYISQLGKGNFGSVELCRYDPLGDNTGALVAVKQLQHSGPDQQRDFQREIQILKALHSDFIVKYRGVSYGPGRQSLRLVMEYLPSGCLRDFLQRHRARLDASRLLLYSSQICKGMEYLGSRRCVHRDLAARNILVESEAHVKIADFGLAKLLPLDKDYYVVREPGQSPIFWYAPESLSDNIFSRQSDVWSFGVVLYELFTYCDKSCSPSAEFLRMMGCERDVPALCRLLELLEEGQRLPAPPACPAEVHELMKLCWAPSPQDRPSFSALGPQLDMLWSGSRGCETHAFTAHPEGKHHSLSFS
Experiment: Kinobeads assay, JAK3
Assay type: binding
Details: mixed Molt4/Ramos lysate, read-out: Inhibition values (IC50) JAK3
Outline: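 IC50 values come from dose-response curves of JAK2/JAK3 captured on immobilized aminopyrido-pyrimidine beads, quantified by antibody dot blot with infrared read-out. Compounds (1:3 series, 9 steps, from 5 mM DMSO stock) competed for 3 h in the cold with mixed Molt4/Ramos lysate (1:2, 10 mg/mL protein).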

SMILES | pIC50
Cn1cc(Nc2ncc3cnn(Cc4cccc(-c5cnn(C)c5)c4)c3n2)cn1 [Example 115, N-(1-methyl-1H-pyrazol-4-yl)-1-(3-(1-methyl-1H-pyrazol-4-yl)benzyl)-1H-pyrazolo[3,4-d]pyrimidin-6-amine] | > 7.00
CCn1cc(-c2cccc(Cn3ncc4cnc(Nc5cnn(C)c5)nc43)c2)cn1 [Example 116, 1-(3-(1-ethyl-1H-pyrazol-4-yl)benzyl)-N-(1-methyl-1H-pyrazol-4-yl)-1H-pyrazolo[3,4-d]pyrimidin-6-amine] | > 7.00
CC(C)n1cc(-c2cccc(Cn3ncc4cnc(Nc5cnn(C)c5)nc43)c2)cn1 [Example 117, 1-(3-(1-isopropyl-1H-pyrazol-4-yl)benzyl)-N-(1-methyl-1H-pyrazol-4-yl)-1H-pyrazolo[3,4-d]pyrimidin-6-amine] | 6.00 to 7.00
Cn1cc(Nc2ncc3cnn(Cc4cccc(-c5cn[nH]c5)c4)c3n2)cn1 [Example 118, 1-(3-(1H-pyrazol-4-yl)benzyl)-N-(1-methyl-1H-pyrazol-4-yl)-1H-pyrazolo[3,4-d]pyrimidin-6-amine] | > 7.00
CCCn1cc(-c2cccc(Cn3ncc4cnc(Nc5cnn(C)c5)nc43)c2)cn1 [Example 119, N-(1-methyl-1H-pyrazol-4-yl)-1-(3-(1-propyl-1H-pyrazol-4-yl)benzyl)-1H-pyrazolo[3,4-d]pyrimidin-6-amine] | > 7.00
Cn1cc(Nc2ncc3cnn(Cc4cccc(-c5cnn(CC(N)=O)c5)c4)c3n2)cn1 [Example 120, 2-(4-(3-((6-((1-methyl-1H-pyrazol-4-yl)amino)-1H-pyrazolo[3,4-d]pyrimidin-1-yl)methyl)phenyl)-1H-pyrazol-1-yl)acetamide] | > 7.00
Cn1cc(Nc2ncc3cnn(Cc4cccc(-c5cnn(CCO)c5)c4)c3n2)cn1 [Example 121, 2-(4-(3-((6-((1-methyl-1H-pyrazol-4-yl)amino)-1H-pyrazolo[3,4-d]pyrimidin-1-yl)methyl)phenyl)-1H-pyrazol-1-yl)ethanol] | > 7.00
Cn1cc(-c2cccc(Cn3ncc4cnc(Nc5cnn(CCO)c5)nc43)c2)cn1 [Example 122, 2-(4-((1-(3-(1-methyl-1H-pyrazol-4-yl)benzyl)-1H-pyrazolo[3,4-d]pyrimidin-6-yl)amino)-1H-pyrazol-1-yl)ethanol] | > 7.00
Cn1cc(Nc2ncc3cnn(Cc4cccc(-c5cnn(C)c5)c4F)c3n2)cn1 [Example 123, 1-(2-fluoro-3-(1-methyl-1H-pyrazol-4-yl)benzyl)-N-(1-methyl-1H-pyrazol-4-yl)-1H-pyrazolo[3,4-d]pyrimidin-6-amine] | > 7.00
Cn1cc(-c2cccc(Cn3ncc4cnc(Nc5cnn(CCO)c5)nc43)c2F)cn1 [Example 124, 2-(4-((1-(2-fluoro-3-(1-methyl-1H-pyrazol-4-yl)benzyl)-1H-pyrazolo[3,4-d]pyrimidin-6-yl)amino)-1H-pyrazol-1-yl)ethanol] | > 7.00
Cn1cc(Nc2ncc3cnn(Cc4cc(F)cc(-c5cnn(C)c5)c4)c3n2)cn1 [Example 125, 1-(3-fluoro-5-(1-methyl-1H-pyrazol-4-yl)benzyl)-N-(1-methyl-1H-pyrazol-4-yl)-1H-pyrazolo[3,4-d]pyrimidin-6-amine] | > 7.00
Cn1cc(Nc2ncc3cnn(Cc4cc(-c5cnn(C)c5)cc(F)c4F)c3n2)cn1 [Example 126, 1-(2,3-difluoro-5-(1-methyl-1H-pyrazol-4-yl)benzyl)-N-(1-methyl-1H-pyrazol-4-yl)-1H-pyrazolo[3,4-d]pyrimidin-6-amine] | > 7.00
Cn1cc(-c2cc(F)c(F)c(Cn3ncc4cnc(Nc5cnn(CCO)c5)nc43)c2)cn1 [Example 127, 2-(4-((1-(2,3-difluoro-5-(1-methyl-1H-pyrazol-4-yl)benzyl)-1H-pyrazolo[3,4-d]pyrimidin-6-yl)amino)-1H-pyrazol-1-yl)ethanol] | > 7.00
